Source: patent US20250223303A1, “TRICYCLIC BORONIC ACID DERIVATIVE, AND PREPARATION METHOD THEREFOR AND APPLICATION THEREOF” (priority 2021, published 2025)

What was measured:
OXA-48 = target: T1, OXA-48 (Klebsiella pneumoniae, UniProt Q6XEC0); assay: Enzyme activity test (FC5 fluorescent substrate), OXA-48; format: biochemical; details: enzyme 650 pM, substrate FC5 125 μM
T1 construct: purchased GenScript Biotech Co., Ltd
Experimental: Compound stock solution: the compound was prepared as a 50 mM DMSO stock solution. […] After aliquoting, the compound stock solutions were stored at −20° C.
Preparation and storage of antibiotic substrate stock solution: antibiotic fluorescent substrate FC5 was synthesized internally and prepared as a 2 mM stock solution, which was stored at −20° C. after aliquoting.
Storage of β-lactamases: each […] was synthesized by GenScript Biotech Co., Ltd., and stored at −80° C. after aliquoting to avoid repeated freezing and thawing.
Preparation of enzyme activity reaction buffer: SBL buffer: PBS pH 7.4, 0.01% (v/v) Triton X-100; MBL buffer: 50 Mm HEPES in PBS pH 7.2, 1 μM ZnSO4, 1 μg/mL BSA, 0.010% v/v Triton X-100
a) The compound to be tested and buffer were taken out and warmed to room temperature.
b) Each compound was diluted with DMSO and buffer to the initial experimental concentration (Table 2), and then the compound was diluted 3-fold for a total of 10 concentrations.
c) Diluted compounds were added to wells 1 to 20 of a 384-well black plate at 2 replicate wells per concentration, 5 μL per well. 5 µL of DMSO was added to wells 21 to 24.
d) Each enzyme was diluted to the experimental concentration (Table 2) in SBL and MBL buffers, and finally 35 μL/well was added, with a total of 22 wells. 35 μL buffer was added to wells 23 to 24. Wells 21 to well 22 served as the maximum test values (Max), while wells 23 to 24 were designated as the minimum test values (Min).
e) The 384-well plate was centrifuged quickly and incubated for 10 minutes at room temperature.
f) The antibiotic substrate FC5 was diluted in buffer to the experimental concentration of each enzyme (Table 2).
g) The incubated 384-well plate was taken out and FC-5 was added to wells […]. The 384-well plate was centrifuged rapidly and promptly transferred to a microplate reader for reading.
h) The fluorescence intensity was measured at 355 nm excitation light/460 nm emission light in the microplate reader, and the fluorescence intensity was measured every three minutes for a total of 10 measurements.
Initial velocity of enzyme reaction V: Subtract the background reading (Min wells) without enzyme from each fluorescence intensity reading, and then perform on a linear regression analysis on each compound concentration group. The slope is the initial velocity of enzyme reaction (V) at each compound concentration.
Dose-effect curve and IC50 calculation of compounds: The initial velocity of enzyme reaction under the effect of each concentration of compounds was subjected to nonlinear regression fitting. The IC50 (half-maximal inhibitory concentration) of each compound was calculated using the formula […] (Vi: the initial velocity of enzyme reaction at each compound concentration; V0: initial velocity of enzyme reaction without the compound (Max wells). The software used was Graphpad prism 8.

[1] = system: Klebsiella pneumoniae ARLG 1196; assay: MIC test of compounds in combination with antibiotics, Klebsiella pneumoniae ARLG 1196; details: Klebsiella pneumoniae ARLG-1196 CTM-1 group, SHV, NDM, TEM
[2] = system: Acinetobacter baumannii ARLG-1852 OXA-23; assay: MIC test of compounds in combination with antibiotics, Acinetobacter baumannii ARLG-1852; details: Acinetobacter baumannii ARLG-1852 OXA-23
Experimental: (§1) 2-Fold gradient dilution of antibiotics: 300 μL of CAMHVIB medium was added to columns 2-12 of a 96-deep well plate. In column 1, 24 μL of antibiotic stock solution and 576 µL of CAMHB medium were added and mixed well, with a concentration of 512 μg/mL. 300 µL of antibiotic solution was transferred from the column 1 to the second column and mixed well. The process was repeated until column 11, and the column 12 was a blank control.
(§2) Dilution of combined compounds: the compound was diluted 400-fold to 32 μg/ml with CAMHB medium.
(§3) Working solution aliquoting: 25 μL of antibiotics was aliquoted into the 96-U bottom plate with a pipette, and 25 μL of combined compound was added to each well. If antibiotics were used alone, 25 μL of CAMHB medium was added.
(§4) Inoculum solution preparation: 5-6 single colonies were selected from the plate and suspended in normal saline. The bacterial suspension was adjusted to 0.2 (i.e., 0.5 McFarland turbidity, with a bacterial concentration was about 1 to 2×10^8 CFU/mL) with a turbidity meter. The bacterial suspension was diluted 100-fold with CAMHB medium for later use.
(§5) Inoculation: 50 μL of inoculum solution was transferred to the above 50 μL compound plate with a pipette.
(§6) Culture: The 96-U bottom plate was placed in an incubator at 37° C. for 18 to 20 h.

[3] = system: Acinetobacter baumannii ARLG-1853 OXA-23; assay: MIC test of compounds in combination with antibiotics, Acinetobacter baumannii ARLG-1853; details: Acinetobacter baumannii ARLG-1853 OXA-23
Experimental: as §1, §2, §3, §4, §5, §6

[4] = system: carbapenem-resistant Acinetobacter baumannii strains; assay: MIC test of compounds in combination with antibiotics, resistant Acinetobacter baumannii strains; details: all resistant strains of Acinetobacter baumannii

T1 sequence (Q6XEC0 23-265 limits assumed): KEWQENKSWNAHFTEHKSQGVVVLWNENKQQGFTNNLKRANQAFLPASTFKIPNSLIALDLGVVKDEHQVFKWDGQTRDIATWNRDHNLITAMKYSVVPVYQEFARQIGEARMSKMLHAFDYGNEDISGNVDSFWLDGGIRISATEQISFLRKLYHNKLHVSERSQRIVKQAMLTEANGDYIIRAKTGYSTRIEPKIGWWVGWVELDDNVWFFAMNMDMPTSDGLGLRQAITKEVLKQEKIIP

NCCNC1CCC(CC(=O)N[C@H]2Cc3cccc(C(=O)O)c3OB2O)CC1 (some centres unmarked) [VNRX-5133, reference compound]
IC50 (OXA-48): 343 nM
MIC ([1]; Cefepime + compound (8 μg/mL)): 1 µg/mL
MIC ([1]; Meropenem + compound (8 μg/mL)): 1 µg/mL
MIC ([2]; Cefepime + compound (8 μg/mL)): 32 µg/mL
MIC ([2]; Meropenem + compound (8 μg/mL)): 128 µg/mL
MIC ([3]; Cefepime + compound (8 μg/mL)): 32 µg/mL
MIC ([3]; Meropenem + compound (8 μg/mL)): 128 µg/mL
MIC of the combination with cefepime/meropenem [4]: > 32 µg/mL
